# Data taken from patent US6143769A, “Phenylacetic acid benzylamides” (Karl Thomae GmbH, priority 1983, dated 2000).
# Like-named read-outs stand apart in the source and are kept apart here.
# Columns and labels:
# [1] = tested on: rats; assay: Acute toxicity of (S)-enantiomer, single oral dose 1000 mg/kg, rats; assay type: in vivo; conditions: 1000 mg/kg p.o.
# [2] = Study 3: plasma concentration of active substance, single test subject; assay type: in vivo, human
# [3] = clinical; conditions: human, plasma, po
# Experimental: (§1) More specifically, the studies which follow were carried out on healthy male volunteers in whom the levels of glucose and active substance in the course of time were determined:
# (§2) 0.25 hours after oral administration a standard breakfast (B) was eaten, 5.5 hours after administration a standard lunch (L) was eaten and 10 hours after administration a standard evening meal (D) was eaten. Blood samples were taken at different times. The glucose concentrations were determined from whole blood according to study 1. The AG-EE 623 ZW concentrations in the plasma were determined by a stereospecific competitive enzyme immunoassay (ELISA) with a detection limit of 0.5 ng/ml.
# (§3) The AG-EE 623 ZW-specific ELISA used is based on polyclonal rabbit antibodies directed against AG-EE 623 ZW covalently bound to human serum albumin. The cross reaction with AG-EE 624 ZW is less than 1:100. Microtitre immunoplates were coated with these antibodies and, after washing and blocking of the plates, incubated with standard or unknown plasma samples at 4° C. for one hour with shaking. Then AG-EE 623 ZW coupled to horse-radish peroxidase was added and incubated for a further 4 hours under the same conditions. 1,2-phenylenediamine was used as substrate for photometrically quantifying the bound enzyme-coupled molecules.
# [4] = after administration of racemate
# Experimental: as §1
# (§4) In the interests of more precise clarification, study 5 was carried out (randomised, open, crossover). […] 2 hours after administration a standard breakfast (B) was eaten, 5 hours after administration a standard lunch (L) was eaten and 10 hours after administration a standard dinner (D) was eaten. Blood samples were taken at different times. The glucose concentrations were measured in the plasma as in study 1. […] The plasma concentrations of AG-EE 624 ZW were calculated as the difference between the two concentrations found:
# [5] = tested on: blood sugar; assay: Blood sugar-lowering effect of the enantiomers in fasted female rats (oral); assay type: in vivo
# Experimental: The substances to be investigated were suspended in 1.5% methylcellulose immediately before the start of the test and administered into the oesophagus. […] Glucose was measured in the supernatant by the hexokinase method using an analytical photometer. The statistical evaluation was carried out using the Student's t-test with p=0.05 as the limit of significance. Table 1 which follows contains the statistically significant values as percentage deviations from the control: […]
# [6] = tested on: glucose; assay: Study 3: whole blood glucose, single fasting test subject, crossover; assay type: in vivo, human
# [7] = clinical; conditions: human, plasma, 1 mg
# Experimental: as §1, §4
# [8] = tested on: glucose; assay: Study 4: whole blood glucose, AG-EE 623 ZW spray-dried tablets; assay type: in vivo, human
# From the text: Blood samples were taken at different times.
# [9] = for Maximum concentration: 2 mg tablet p.o.
# Experimental: as §1, §2, §3
compound,measurement,setting,value
"CCOc1cc(CC(=O)N[C@@H](CC(C)C)c2ccccc2N2CCCCC2)ccc1C(=O)O [AG-EE 623 ZW, (S)(+)-2-ethoxy-4-[N-[1-(2-piperidino-phenyl)-3-methyl-1-butyl]aminocarbonylmethyl]-benzoic acid]",Toxicity,[1],virtually non-toxic
same,Deaths,"[1]; 5 male and 5 female rats, 14 days",no animals died
same,Maximum level relative to level after same dose of AG-EE 388 ZW,[2]; 2 mg,about one third
same,Maximum concentration,"[2]; 2 mg capsule, listed as 623",24 ng/mL
same,Active substance concentration,"[2]; 2 mg, 1.25 h",0 ng/mL
same,Active substance concentration,"[2]; 2 mg, 2.50 h",0 ng/mL
same,Active substance concentration,"[2]; 2 mg, 3.00 h",0 ng/mL
same,Active substance concentration,"[2]; 2 mg, 3.50 h",0 ng/mL
same,Active substance concentration,"[2]; 2 mg, 4.00 h",0 ng/mL
same,Active substance concentration,"[2]; 2 mg, 6.00 h",0 ng/mL
same,Active substance concentration,"[2]; 2 mg, 7.00 h",0 ng/mL
same,Cmax,"[2]; human, plasma, po, 2 mg, 2 mg capsule, read-out: Maximum concentration",22 to 24 ng/mL
same,concentration at 1.5 h,"[2]; human, plasma, po, 2 mg, 1.50 h",22 ng/mL
same,concentration at 1.75 h,"[2]; human, plasma, po, 2 mg, 1.75 h",24 ng/mL
same,concentration at 2 h,"[2]; human, plasma, po, 2 mg, 2.00 h",7 ng/mL
same,Tmax,[3],30 min
same,AUC(0-inf),[3]; 0.5 mg,14.3 ± 8.6 ng·h/mL
same,Cmax,[3]; 0.5 mg,15 ± 8 ng/mL
same,MRT,[3]; 0.5 mg,54 ± 12 min
same,Tmax,[3]; 0.5 mg,36 ± 6 min
same,concentration at 0.25 h,[3]; 0.5 mg,8.4 ng/mL
same,concentration at 0.5 h,[3]; 0.5 mg,4.7 ng/mL
same,concentration at 0.75 h,[3]; 0.5 mg,1.6 ng/mL
same,concentration at 1 h,[3]; 0.5 mg,7 ng/mL
same,concentration at 1.5 h,[3]; 0.5 mg,2.6 ng/mL
same,concentration at 2.09 h,[3]; 0.5 mg,1.2 ng/mL
same,concentration at 3 h,[3]; 0.5 mg,0.3 ng/mL
same,half-life,[3]; 0.5 mg,30 ± 12 min
same,concentration at 0.25 h,[3]; 1 mg,14.5 ng/mL
same,concentration at 0.5 h,[3]; 1 mg,27.9 ng/mL
same,concentration at 0.75 h,[3]; 1 mg,24.2 ng/mL
same,concentration at 1 h,[3]; 1 mg,15.3 ng/mL
same,concentration at 1.5 h,[3]; 1 mg,7.8 ng/mL
same,concentration at 2.09 h,[3]; 1 mg,4.7 ng/mL
same,concentration at 3 h,[3]; 1 mg,1.4 ng/mL
same,concentration at 0.25 h,[3]; 2 mg,24.1 ng/mL
same,concentration at 0.5 h,[3]; 2 mg,50.4 ng/mL
same,concentration at 0.75 h,[3]; 2 mg,41.1 ng/mL
same,concentration at 1 h,[3]; 2 mg,29.9 ng/mL
same,concentration at 1.5 h,[3]; 2 mg,13.5 ng/mL
same,concentration at 2.09 h,[3]; 2 mg,8.8 ng/mL
same,concentration at 3 h,[3]; 2 mg,4.3 ng/mL
same,concentration at 4 h,[3]; 2 mg,1.5 ng/mL
same,concentration at 5 h,[3]; 2 mg,0.4 ng/mL
same,concentration at 6 h,[3]; 2 mg,0.2 ng/mL
same,Elimination (comparison),[4],"eliminated more rapidly than the ineffective enantiomer, AG-EE 624 ZW"
same,"Glucose, percentage deviation from control","[5]; 0.015 mg/kg p.o., 1 h",-17 percentage deviation
same,"Glucose, percentage deviation from control","[5]; 0.015 mg/kg p.o., 2 h",-36 percentage deviation
same,"Glucose, percentage deviation from control","[5]; 0.015 mg/kg p.o., 3 h",-37 percentage deviation
same,"Glucose, percentage deviation from control","[5]; 0.015 mg/kg p.o., 4 h",-32 percentage deviation
same,"Glucose, percentage deviation from control","[5]; 0.015 mg/kg p.o., 5 h",-35 percentage deviation
same,"Glucose, percentage deviation from control","[5]; 0.015 mg/kg p.o., 6 h",-35 percentage deviation
same,Blood sugar-lowering effect (in words),[5]; rat,effective enantiomer
same,Duration of effect,"[5]; rat, 0.015 mg/kg p.o.",> 6 h
same,Maximum lowering of blood glucose,[6]; 2 mg,-43%
same,Onset of effect,[6]; 2 mg,0.5 h
same,Time of maximum blood sugar reduction,[6]; 2 mg,1.5 h
same,"Glucose, deviation against t = 0","[6]; 2 mg capsule, 0 h",0%
same,"Glucose, deviation against t = 0","[6]; 2 mg, 0.50 h",-10%
same,"Glucose, deviation against t = 0","[6]; 2 mg, 0.75 h",-14%
same,"Glucose, deviation against t = 0","[6]; 2 mg, 1.00 h",-18%
same,"Glucose, deviation against t = 0","[6]; 2 mg, 1.25 h",-29%
same,"Glucose, deviation against t = 0","[6]; 2 mg, 1.50 h",-43%
same,"Glucose, deviation against t = 0","[6]; 2 mg, 1.75 h",-40%
same,"Glucose, deviation against t = 0","[6]; 2 mg, 2.00 h",-33%
same,"Glucose, deviation against t = 0","[6]; 2 mg, 2.50 h",-33%
same,"Glucose, deviation against t = 0","[6]; 2 mg, 3.00 h",-31%
same,"Glucose, deviation against t = 0","[6]; 2 mg, 4.00 h",-20%
same,"Glucose, deviation against t = 0","[6]; 2 mg, 5.00 h",-22%
same,"Glucose, deviation against t = 0","[6]; 2 mg, 6.00 h",-28%
same,"Glucose, deviation against t = 0","[6]; 2 mg, 7.00 h",-22%
same,"Glucose, deviation against t = 0","[6]; 2 mg, 8.00 h",-26%
same,MRT,[7]; iv,54 ± 36 min
same,clearance,[7]; iv,443 ± 140 mL/min
same,bioavailability,[7]; po,76 ± 20%
same,Glucose (mean),"[8]; 0.5 mg tablet, 0 h",5.21 mmol/L
same,Glucose (mean),"[8]; 0.5 mg, 0.25 h (breakfast)",5.09 mmol/L
same,Glucose (mean),"[8]; 0.5 mg, 0.50 h",5.01 mmol/L
same,Glucose (mean),"[8]; 0.5 mg, 0.75 h",5.85 mmol/L
same,Glucose (mean),"[8]; 0.5 mg, 1.00 h",5.88 mmol/L
same,Glucose (mean),"[8]; 0.5 mg, 1.50 h",4.05 mmol/L
same,Glucose (mean),"[8]; 0.5 mg, 2.09 h (so in the source)",3.50 mmol/L
same,Glucose (mean),"[8]; 0.5 mg, 3.00 h",3.90 mmol/L
same,Glucose (mean),"[8]; 0.5 mg, 4.00 h",4.08 mmol/L
same,Glucose (mean),"[8]; 0.5 mg, 5.00 h",4.32 mmol/L
same,Glucose (mean),"[8]; 0.5 mg, 6.00 h",6.63 mmol/L
same,Glucose (mean),"[8]; 0.5 mg, 8.00 h",5.61 mmol/L
same,Glucose (mean),"[8]; 0.5 mg, 10.00 h (dinner)",4.81 mmol/L
same,Glucose (mean),"[8]; 0.5 mg, 24.00 h",4.82 mmol/L
same,Time of peak blood sugar lowering,[8]; 1 mg and 2 mg tablet,1.5 h
same,Duration of blood sugar lowering,[8]; 1 mg tablet,up to 2 hours
same,Start of blood sugar lowering,[8]; 1 mg tablet,1.0 h
same,Glucose (mean),"[8]; 1 mg tablet, 0 h",4.62 mmol/L
same,Glucose (mean),"[8]; 1 mg, 0.25 h (breakfast)",4.62 mmol/L
same,Glucose (mean),"[8]; 1 mg, 0.50 h",4.57 mmol/L
same,Glucose (mean),"[8]; 1 mg, 0.75 h",5.36 mmol/L
same,Glucose (mean),"[8]; 1 mg, 1.00 h",4.72 mmol/L
same,Glucose (mean),"[8]; 1 mg, 1.50 h",2.98 mmol/L
same,Glucose (mean),"[8]; 1 mg, 2.09 h (so in the source)",3.20 mmol/L
same,Glucose (mean),"[8]; 1 mg, 3.00 h",3.69 mmol/L
same,Glucose (mean),"[8]; 1 mg, 4.00 h",4.05 mmol/L
same,Glucose (mean),"[8]; 1 mg, 5.00 h",3.94 mmol/L
same,Glucose (mean),"[8]; 1 mg, 6.00 h",6.48 mmol/L
same,Glucose (mean),"[8]; 1 mg, 8.00 h",5.37 mmol/L
same,Glucose (mean),"[8]; 1 mg, 10.00 h (dinner)",4.57 mmol/L
same,Glucose (mean),"[8]; 1 mg, 24.00 h",4.69 mmol/L
same,Duration of blood sugar lowering,[8]; 2 mg tablet,≤ 5 h
same,Start of blood sugar lowering,[8]; 2 mg tablet,0.75 h
same,Glucose (mean),"[8]; 2 mg tablet, 0 h",4.67 mmol/L
same,Glucose (mean),"[8]; 2 mg, 0.25 h (breakfast)",5.14 mmol/L
same,Glucose (mean),"[8]; 2 mg, 0.50 h",4.38 mmol/L
same,Glucose (mean),"[8]; 2 mg, 0.75 h",4.54 mmol/L
same,Glucose (mean),"[8]; 2 mg, 1.00 h",4.27 mmol/L
same,Glucose (mean),"[8]; 2 mg, 1.50 h",2.65 mmol/L
same,Glucose (mean),"[8]; 2 mg, 2.09 h (so in the source)",2.74 mmol/L
same,Glucose (mean),"[8]; 2 mg, 3.00 h",3.07 mmol/L
same,Glucose (mean),"[8]; 2 mg, 4.00 h",3.64 mmol/L
same,Glucose (mean),"[8]; 2 mg, 5.00 h",3.88 mmol/L
same,Glucose (mean),"[8]; 2 mg, 6.00 h",6.47 mmol/L
same,Glucose (mean),"[8]; 2 mg, 8.00 h",4.61 mmol/L
same,Glucose (mean),"[8]; 2 mg, 10.00 h (dinner)",4.45 mmol/L
same,Glucose (mean),"[8]; 2 mg, 24.00 h",4.77 mmol/L
same,Concentration (mean),"[9]; 0.5 mg tablet, 0 h",0.0 ng/mL
same,Concentration (mean),"[9]; 0.5 mg, 4.00 h",0.0 ng/mL
same,Concentration (mean),"[9]; 0.5 mg, 5.00 h",0.0 ng/mL
same,Concentration (mean),"[9]; 0.5 mg, 6.00 h",0.0 ng/mL
same,Concentration (mean),"[9]; 0.5 mg, 8.00 h",0.0 ng/mL
same,Concentration (mean),"[9]; 0.5 mg, 10.00 h",0.0 ng/mL
same,Concentration (mean),"[9]; 0.5 mg, 24.00 h",0.0 ng/mL
same,Time at which plasma level is below detection limit,[9]; 1 mg tablet,3.0 h
same,Concentration (mean),"[9]; 1 mg tablet, 0 h",0.0 ng/mL
same,Concentration (mean),"[9]; 1 mg, 8.00 h",0.0 ng/mL
same,Concentration (mean),"[9]; 1 mg, 10.00 h",0.0 ng/mL
same,Concentration (mean),"[9]; 1 mg, 24.00 h",0.0 ng/mL
same,Time at which plasma level is below detection limit,[9]; 2 mg tablet,4.0 h
same,Maximum concentration,[9],50.4 ± 26.3 ng/mL
same,Maximum concentration,[9]; listed as 623,50 ± 26 ng/mL
same,Concentration (mean),"[9]; 2 mg tablet, 0 h",0.0 ng/mL
same,Concentration (mean),"[9]; 2 mg, 8.00 h",0.0 ng/mL
same,Concentration (mean),"[9]; 2 mg, 10.00 h",0.0 ng/mL
same,Concentration (mean),"[9]; 2 mg, 24.00 h",0.0 ng/mL
same,Fall of plasma levels (comparison),"[9]; versus AG-EE 388 ZW, identical dose",fall more rapidly towards zero than the AG-EE 388 ZW levels
